Laboratory results: patent publication US9730944B2, “Antiviral activity of novel bicyclic heterocycles” (priority 2010, dated 2017)
Converted amounts (≈) assume the structure as drawn. Like-named read-outs stand apart in the source and are kept apart here.

Key:
[1] = test system: poliovirus (PV type 1); experiment: microbe, parasite or virus in culture; format: cell-based; conditions: Enterovirus C, read-out: PV-1 EC50
[2] = Cytotoxicity in HCV-1a replicon cells, Promega CellTiter-Glo cell viability assay
[3] = test system: poliovirus (PV type 3); experiment: microbe, parasite or virus in culture; format: cell-based; conditions: Enterovirus C, read-out: PV-3 EC50
[4] = test system: infectious genotype 2a virus (a J6/JFH-1 chimera); experiment: JFH-1 HCV-2a virus assay in Lunet-CD81 cells, NS3 expression readout; format: cell-based
[5] = test system: genotype 1b replicon; experiment: HCV genotype 1b replicon potency in R-luc cells, bioluminescence; format: cell-based; conditions: 72 hours, average of two or more independent experiments ± std. dev, read-out: Stable replicon cell lines EC50 (μM) Genotype1b (R-luc)
[6] = test system: poliovirus (PV type 2); experiment: microbe, parasite or virus in culture; format: cell-based; conditions: Enterovirus C, read-out: PV-2 EC50
[7] = Cytotoxicity in G-luc replicon cells, Promega CellTiter-Glo cell viability assay; conditions: G-luc (GLuc-1) HCV genotype 1a H-77 replicon cells
[8] = in vitro; conditions: African green monkey, PV CC50
[9] = test system: genotype 1a H-77 replicon; experiment: HCV genotype 1a replicon potency in GLuc-1 cells, bioluminescence; format: cell-based; conditions: 72 hours, average of two or more independent experiments ± std. dev, read-out: Stable replicon cell lines EC50 (μM) Genotype 1a (Gluc-1)
[10] = in vitro; conditions: human, PV CC50
[11] = test system: genotype 1a H-77 replicon; experiment: HCV-1a replicon potency in RLuc-1 cells, bioluminescence; format: cell-based; conditions: for HCV-1a Replicon Selectivity Index: CC50/EC50, genotype 1a replicon
[12] = molecular target: purine nucleoside phosphorylase (Homo sapiens, UniProt P00491); conditions: J. C. Sircar et al. J. Med. Chem. 1986, 29, 1804-1806; cited from earlier work
[13] = test system: hRV-45; experiment: Rhinovirus type 45 antiviral assay in Hela Rh cells, MTS readout; format: cell-based, Human rhinovirus; conditions: Hela Rh cells
[14] = test system: hRV-15; experiment: Rhinovirus type 15 antiviral assay in Hela Rh cells, MTS readout; format: cell-based, Human rhinovirus; conditions: Hela Rh cells
[15] = test system: hRV-9; experiment: Rhinovirus type 9 antiviral assay in Hela Rh cells, MTS readout; format: cell-based, Human rhinovirus; conditions: Hela Rh cells
[16] = test system: hRV-14; experiment: Rhinovirus type 14 antiviral assay in Hela Rh cells, MTS readout; format: cell-based, Human rhinovirus; conditions: Hela Rh cells
[17] = test system: hRV-85; experiment: Rhinovirus type 85 antiviral assay in Hela Rh cells, MTS readout; format: cell-based, Human rhinovirus; conditions: Hela Rh cells
[18] = test system: hRV-41; experiment: Rhinovirus type 41 antiviral assay in Hela Rh cells, MTS readout; format: cell-based, Human rhinovirus; conditions: Hela Rh cells
[19] = test system: hRV-42; experiment: Rhinovirus type 42 antiviral assay in Hela Rh cells, MTS readout; format: cell-based, Human rhinovirus; conditions: Hela Rh cells
[20] = test system: hRV-39; experiment: Rhinovirus type 39 antiviral assay in Hela Rh cells, MTS readout; format: cell-based, Human rhinovirus; conditions: Hela Rh cells
[21] = test system: hRV-63; experiment: Rhinovirus type 63 antiviral assay in Hela Rh cells, MTS readout; format: cell-based, Human rhinovirus; conditions: Hela Rh cells
[22] = test system: hRV-70; experiment: Rhinovirus type 70 antiviral assay in Hela Rh cells, MTS readout; format: cell-based, Human rhinovirus; conditions: Hela Rh cells
[23] = test system: hRV-72; experiment: Rhinovirus type 72 antiviral assay in Hela Rh cells, MTS readout; format: cell-based, Human rhinovirus; conditions: Hela Rh cells
[24] = test system: hRV-2; experiment: Rhinovirus type 2 antiviral assay in Hela Rh cells, MTS readout; format: cell-based, Human rhinovirus; conditions: Hela Rh cells
[25] = test system: Hela Rh cells; experiment: Cytostatic/cytotoxic effect in Hela Rh cells (rhinovirus methodology, MTS)
[26] = test system: hRV-86; experiment: Rhinovirus type 86 antiviral assay in Hela Rh cells, MTS readout; format: cell-based, Human rhinovirus; conditions: Hela Rh cells
[27] = test system: HIV-2 strain (ROD); experiment: Inhibition of replication of HIV-2 (ROD strain) in MT-4 cells, MTT assay; format: cell-based; conditions: Human immunodeficiency virus 2, MT4, 120 h, read-out: EC50 (μM) HIV-2 (ROD)
[28] = test system: HIV-1 strain IIIB; experiment: Inhibition of replication of HIV-1 (IIIB strain) in MT-4 cells, MTT assay; format: cell-based; conditions: read-out: EC50 (μM) HIV-1 (IIIB)
[29] = in vitro; conditions: human
[30] = test system: MT-4 cells
[31] = test system: RLuc-1 cells; experiment: Cytotoxicity in HCV-1a replicon cells, Promega CellTiter-Glo cell viability assay; conditions: read-out: HCV-1a Replicon CC50; replicon cells, 72 hours, CellTiter-Glo
[32] = test system: Hela H cells; conditions: human
[33] = test system: Vero cells; conditions: African green monkey
[34] = Hepatitis C virus, 72 h, read-out: Genotype 2a Virus (Lunet-CD81) EC50 (μM)
[35] = Hepatitis C virus, 72 h, read-out: HCV-1a Replicon EC50 (μM)
[36] = MT-4 cells, MTT assay, five days after infection, 50% protection from cytopathic effect
[37] = J6/JFH-1 chimera, MOI of 1, 72 hours, NS3 readout, read-out: Genotype 2a Virus (Lunet-CD81) EC50
[38] = RLuc-1 cells, 72 hours, bioluminescence, read-out: HCV-1a Replicon EC50

Sequence of purine nucleoside phosphorylase (P00491 whole entry, species assumed): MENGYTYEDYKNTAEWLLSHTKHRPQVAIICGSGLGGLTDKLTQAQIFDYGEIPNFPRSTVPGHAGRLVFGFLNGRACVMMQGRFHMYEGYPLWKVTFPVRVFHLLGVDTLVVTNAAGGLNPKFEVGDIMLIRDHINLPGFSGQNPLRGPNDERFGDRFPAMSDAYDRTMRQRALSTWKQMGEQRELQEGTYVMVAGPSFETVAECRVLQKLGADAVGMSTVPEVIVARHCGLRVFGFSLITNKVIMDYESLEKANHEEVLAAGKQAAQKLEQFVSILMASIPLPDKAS

## Nc1nc(N2CCN(C(=O)COc3ccc(Cl)cc3)CC2)c2nc(C3CC3)sc2n1 [Example 119, 5-amino-2-cyclopropyl-7-[4-(4-chlorophenoxyacetyl)piperazin-1-yl]-thiazolo[5,4-d]pyrimidine]
[1]; HeLa
  EC50: 24.1 µg/mL (≈ 54.1 µM)
[1]; Vero
  EC50: 0.34 µg/mL (≈ 0.764 µM)
[2]
  CC50 at 72 h: > 44400 nM
[3]; HeLa
  EC50: > 50 µg/mL
[3]; Vero
  EC50: 12.5 µg/mL (≈ 28 µM)
[4]; [34]
  EC50: > 50 µM
[5]; Hepatitis C virus
  EC50: 0.341 ± 0.024 µM
[6]; HeLa
  EC50: 1.21 µg/mL (≈ 2.72 µM)
[6]; Vero
  EC50: 0.33 µg/mL (≈ 0.742 µM)
[7]
  CC50 at 72 h: > 50000 nM
[8]
  CC50: > 150 µg/mL
[9]; Hepatitis C virus
  EC50: 0.422 ± 0.104 µM
[10]
  CC50: > 50 µg/mL
[11]
  HCV-1a Replicon Selectivity Index: >87
[11]; [35]
  EC50: 0.5 µM

## Nc1nc2sc(N)nc2c(=O)[nH]1 [2,5-Diaminothiazolo[5,4-d]pyrimidin-7(6H)-one]
[12]
  inhibitor of purine nucleoside phosphorylase: weak inhibitor

## Nc1nc(N2CCN(C(=O)COc3ccc(Br)cc3)CC2)c2sc(Cc3ccc(F)cc3)nc2n1 [Example 231, 1-(4-(5-amino-2-(4-fluorobenzyl)thiazolo[5,4-c]pyrimidin-7-yl)piperazin-1-yl)-2-(4-bromophenoxy)ethanone]
[13]
  hRV-45 EC50: =2.22 μg/ml
[14]
  hRV-15 EC50: =1.38 μg/ml
[15]
  hRV-9 EC50: =0.55 μg/ml
[16]
  hRV-14 EC50: =1.20 μg/ml
[17]
  hRV-85 EC50: =2.21 μg/ml
[18]
  hRV-41 EC50: =0.89 μg/ml
[19]
  hRV-42 EC50: =1.26 μg/ml
[20]
  hRV-39 EC50: =0.34 μg/ml
[21]
  hRV-63 EC50: =2.32 μg/ml
[22]
  hRV-70 EC50: =4.60 μg/ml
[23]
  hRV-72 EC50: =4.95 μg/ml
[24]
  hRV-2 EC50: =0.51 μg/ml
[25]
  CC50: >50.00 µg/mL
[26]
  hRV-86 EC50: =4.42 μg/ml

## CCOc1nc(N)nc2sc(-c3ccc(F)cc3)cc12 [Example 363, 4-ethoxy-6-(4-fluorophenyl)thieno[2,3-d]pyrimidin-2-amine]
[27]
  EC50: ≥ 432 µM
other
  melting point: 142 °C
[28]; Human immunodeficiency virus 1, IIIB, MT4, 120 h
  EC50: ≥ 432 µM
[29]
  CC50: 432000 nM

## COCCCNc1nc(N)nc2sc(-c3ccc(F)cc3)nc12 [Example 32, 2-(4-fluorophenyl)-N-7-(3-methoxypropyl)thiazolo[5,4-d]pyrimidine-5,7-diamine]
[28]; [36]
  EC50: > 349 µM
[30]
  CC50: > 365000 nM

## CCCc1nc2c(N3CCN(C(=O)COc4ccc(Cl)cc4)CC3)nc(N)nc2[nH]1 [Example 397, 1-(4-(2-amino-8-propyl-9H-purin-64)piperazin-1-yl)-2-(4-chlorophenoxy)ethanone]
[31]
  CC50: > 44400 nM
[4]; [37]
  EC50: 31.2 µM
[5]
  EC50: 0.14 ± 0.11 µM
[9]
  EC50: 0.181 ± 0.108 µM
[11]; [38]
  EC50: 1.1 µM

## Nc1nc(NCc2ccccc2)c2cc(-c3ccc(F)cc3)sc2n1 [Example 327, 2-amino-4-N-benzylamino-6-(4-fluorophenyl)-thieno[2,3-d]pyrimidine]
[31]
  CC50: 23200 nM
[11]; [38]
  EC50: 38.6 µM

## O=C(COc1ccc(Cl)cc1)N1CCN(c2ncnc3oc(-c4ccc(F)cc4)nc23)CC1 [Example 167, 2-(4-chlorophenoxy)-1-(4-(2-(4-fluorophenyl)oxazolo[5,4-d]pyrimidin-7-yl)piperazin-1-yl)ethanone]
[1]; HeLa
  EC50: > 50 µg/mL
[1]; Vero
  EC50: > 50 µg/mL
[27]; [36]
  EC50: > 50 µM
[32]
  PV CC50: 31.91 µg/mL
[3]; HeLa
  EC50: > 50 µg/mL
[3]; Vero
  EC50: > 50 µg/mL
[6]; HeLa
  EC50: ≥ 50 µg/mL
[8]
  CC50: > 150 µg/mL
[28]; Human immunodeficiency virus 1, IIIB, MT4, 120 h, MT-4 cells, MTT assay, five days after infection, 50% protection from cytopathic effect
  EC50: > 50 µM
[29]
  CC50: > 50000 nM
[33]
  PV CC50: 105.69 µg/mL
[10]
  CC50: > 50 µg/mL

## Cc1nc2c(N3CCN(C(=O)COc4ccc(Cl)cc4)CC3)nc(N)nc2[nH]1 [Example 400, 1-(4-(2-amino-8-methyl-9H-purin-6-yl)piperazin-1-yl)-2-(4-chlorophenoxy)ethanone]
[2]
  CC50 at 72 h: > 44400 nM
[4]; [34]
  EC50: > 50 µM
[5]; Hepatitis C virus
  EC50: 0.188 ± 0.012 µM
[7]
  CC50 at 72 h: > 50000 nM
[9]; Hepatitis C virus
  EC50: 0.125 ± 0.035 µM
[11]
  HCV-1a Replicon Selectivity Index: >164
[11]; [35]
  EC50: 0.3 µM

## Nc1nc(N2CCN(C(=O)COc3ccc(Cl)cc3)CC2)c2nc(C3CC3)[nH]c2n1 [Example 398, 1-(4-(2-amino-8-cyclopropyl-9H-purin-6-yl)piperazin-1-yl)-2-(4-chlorophenoxy)ethanone]
[2]
  CC50 at 72 h: > 44400 nM
[4]; [34]
  EC50: 29 µM
[5]; Hepatitis C virus
  EC50: 0.192 ± 0.008 µM
[7]
  CC50 at 72 h: > 50000 nM
[9]; Hepatitis C virus
  EC50: 0.274 ± 0.04 µM
[11]
  HCV-1a Replicon Selectivity Index: >143
[11]; [35]
  EC50: 0.3 µM

## CSc1nc2c(N3CCN(C(=O)COc4ccc(Cl)cc4)CC3)nc(N)nc2n1C [Example 428, 1-(4-(2-amino-9-methyl-8-(methylthio)-9H-purin-6-yl)piperazin-1-yl)-2-(4-chlorophenoxy)ethanone]
[2]
  CC50 at 72 h: > 44400 nM
[4]; [34]
  EC50: > 50 µM
[5]; Hepatitis C virus
  EC50: 0.005 ± 0.002 µM
[7]
  CC50 at 72 h: > 50000 nM
[9]; Hepatitis C virus
  EC50: 0.056 ± 0.002 µM
[11]
  HCV-1a Replicon Selectivity Index: >888
[11]; [35]
  EC50: 0.05 µM

## C[C@@]1(O)[C@H](O)[C@@H](CO)O[C@H]1n1cnc2c(N)ncnc21 [2′CMA]
[4]; [37]
  EC50: 0.3 ± 0.03 µM
[5]
  EC50: 0.3 ± 0.02 µM
[9]
  EC50: 0.23 ± 0.3 µM

## Nc1nc(N2CCN(C(=O)COc3ccccc3)CC2)c2nc(-c3ccc(F)cc3)[nH]c2n1 [Example 401, 1-(4-(2-amino-8-(4-fluorophenyl)-9H-purin-6-yl)piperazin-1-yl)-2-phenoxyethanone]
[2]
  CC50 at 72 h: 20400 nM
[4]; [34]
  EC50: 15.4 µM
[5]; Hepatitis C virus
  EC50: 0.081 ± 0.041 µM
[7]
  CC50 at 72 h: > 50000 nM
[9]; Hepatitis C virus
  EC50: 0.059 ± 0.008 µM
[11]
  HCV-1a Replicon Selectivity Index: 26.5
[11]; [35]
  EC50: 0.8 µM
